# Assay results from patent publication US20220054432A1, “COMPOSITION FOR INCREASING RETENTION OF CAROTENOID IN BLOOD” (ENEOS Corporation, priority 2018, published 2022).
# Read-outs that look alike come from different tables or passages of the source.
# Columns and labels:
# Assay type in all cases: in vivo, ICR strain mice
# [1] = Retention in blood: carotenoid concentration in serum of mice (Test Example 1); details: 50 mg/kg body weight orally once daily for 10 days, blood 4 hours after last administration
# Excerpt: Adonixanthin was used as an asymmetric carotenoid, and astaxanthin was used as a symmetric carotenoid. As experimental animals, ICR strain mice were used. Fourteen (14) mice were used, and 4 mice each were assigned to the adonixanthin-administration group and the astaxanthin-administration group, and 6 mice were assigned to the control administration group. In grouping, each group was constituted so that the mean body weight in each group was as uniform as possible based on the body weight on the day before initiation of administration. For each experimental group, blood was collected before initiation of administration of dosing substances. […] Each of the concentration of adonixanthin in serum of blood collected from the adonixanthin-administration group (concentration relative to 1 mL of serum) and the concentration of astaxanthin in serum of blood collected from the astaxanthin-administration group (concentration relative to 1 mL of serum) was measured. […] In HPLC, the concentration of adonixanthin was measured as a concentration of each of the cis isomer and the trans isomer. In HPLC, the concentration of astaxanthin was measured as a concentration of each of the cis isomer and the trans isomer. […] From serum collected from the control administration group, neither adonixanthin nor astaxanthin were detected.
# [2] = Transfer into each organ: carotenoid concentration in organs of mice (Test Example 1); details: 50 mg/kg orally once daily for 10 days; for concentration at 10 days: ICR, mouse, po, after last administration, mean
# Excerpt: Adonixanthin was used as an asymmetric carotenoid, and astaxanthin was used as a symmetric carotenoid. As experimental animals, ICR strain mice were used. Fourteen (14) mice were used, and 4 mice each were assigned to the adonixanthin-administration group and the astaxanthin-administration group, and 6 mice were assigned to the control administration group. In grouping, each group was constituted so that the mean body weight in each group was as uniform as possible based on the body weight on the day before initiation of administration.
# To each experimental group, each of adonixanthin, astaxanthin, and olive oil (product number 150-00276, manufactured by Wako Pure Chemical Industries, Ltd.) was orally administered. In the adonixanthin-administration group and the astaxanthin-administration group, adonixanthin and astaxanthin at a volume of 50 mg/kg body weight were orally administered once daily for 10 days (the day of initiation of administration of the dosing substances was defined as day 1) using a flexible stomach tube. In the control administration group, olive oil at a volume of 0.05 mL/kg body weight was orally administered once daily for 10 days using a flexible stomach tube.
# During the administration period, the mice were fed ad libitum a pellet (CE-2, manufactured by CLEA Japan, Inc.) and tap water, and maintained on a 12-h light/dark cycle, at 23±3° C., with a relative humidity of 50±20%.
# After blood collection after the last administration, the whole body was perfused with a heparinized lactated Ringer's solution under isoflurane anesthesia, followed by collection of the retina, the heart, the lung, the spleen, the liver, and the kidney. The collected organs were immediately frozen with liquid nitrogen, and were stored at −80° C.
# Each of the concentration of adonixanthin in each organ collected from the adonixanthin-administration group (concentration relative to the weight of each organ) and the concentration of astaxanthin in each organ collected from the astaxanthin-administration group (concentration relative to the weight of each organ) was measured. Specifically, each organ was homogenized, and extraction was repeated with acetone until no color occurred. Then, filtration through a filter was performed to evaporate acetone, and diethyl ether:hexane (2:8, v/v) was added to the solution to extract a carotenoid. Furthermore, evaporation to dryness was performed, and the residue was dissolved in acetone:hexane (2:8, v/v) and subjected to HPLC. As the HPLC device, a Hitachi L-6000 intelligent pump and an L-4250 UV-VIS detector were used. The measurement wavelength was 450 nm, and a column of 5 μm Cosmosil 5SL-II (inner diameter of 250×4.6 mm) (manufactured by Nacalai Tesque, Inc.) was used. As the mobile phase, acetone:hexane (2:8, v/v) was used, and measurement was performed at a flow rate of 1.0 mL/min.
# In HPLC, the concentration of astaxanthin was measured as a concentration of each of the cis isomer and the trans isomer.
# Each of the concentration of adonixanthin in each organ collected from the adonixanthin-administration group and the concentration of astaxanthin in each organ collected from the astaxanthin-administration group is shown in Table 1. The measured value was expressed as mean. From each organ collected from the control administration group, neither adonixanthin nor astaxanthin were detected.
# [3] = Proportion of trans carotenoid in serum and each organ of mice (Test Example 2); details: mice of Test Example 1, 50 mg/kg orally once daily for 10 days
# Description: In HPLC, the concentration of adonixanthin was measured as a concentration of each of the cis isomer and the trans isomer. In HPLC, the concentration of astaxanthin was measured as a concentration of each of the cis isomer and the trans isomer. Regarding each of adonixanthin and astaxanthin in serum and each organ of mice of Test Example 1, the proportion of the trans isomer was confirmed.
# [4] = heart, read-out: Concentration in organ: Heart
# [5] = kidney, read-out: Concentration in organ: Kidney
# [6] = liver, read-out: Concentration in organ: Liver
# [7] = lung, read-out: Concentration in organ: Lung
# [8] = spleen, read-out: Concentration in organ: Spleen
SMILES,"Concentration in serum (total of cis isomer and trans isomer), FIG. 1 [1]",Transfer into and retention in each organ (summary of Table 1) [2],"concentration at 10 days [2, 4] [ng/g]","concentration at 10 days [2, 5] [ng/g]","concentration at 10 days [2, 6] [ng/g]","concentration at 10 days [2, 7] [ng/g]","concentration at 10 days [2, 8] [ng/g]","Proportion of the trans isomer in each organ versus the cis isomer, FIG. 2 [3]"
"CC1=C(/C=C/C(C)=C/C=C/C(C)=C/C=C/C=C(C)/C=C/C=C(C)/C=C/C2=C(C)C(=O)C(O)CC2(C)C)C(C)(C)CC(O)C1=O (stereo not drawn) [astaxanthin, 3,3′-dihydroxy-β,β-carotene-4,4′-dione]",exist in serum at a high concentration,exist in each organ at a high concentration,124,84.6,109,106,87.8,higher than the proportion of the cis isomer
"CC1=C(/C=C/C(C)=C/C=C/C(C)=C/C=C/C=C(C)/C=C/C=C(C)/C=C/C2=C(C)C(=O)C(O)CC2(C)C)C(C)(C)CC(O)C1 (stereo not drawn) [adonixanthin, 3,3′-dihydroxy-β,β-caroten-4-one]",especially likely to be retained in blood,especially likely to be transferred into each organ and retained therein,141,774,1930,1940,277,especially higher than the proportion of the cis isomer
